Results reported in patent US20100137266A1, “TREATMENT OF INSULIN RESISTANCE AND DISORDERS ASSOCIATED THEREWITH” (UNIVERSITETET I OSLO, priority 2006, published 2010).

Test: Stability in bovine plasma
Assay type: in vitro ADME
Conditions: 300 μM in citrated bovine plasma, 37° C., 24 h; HPLC detection at 210 nm
Procedure: A stock solution of 22(S)-hydroxycholesterol diglutarate was prepared by adding 50 mg of the compound to a 50 ml volumetric flask, followed by 0.5 ml DMSO and deionised water to 50 ml, giving a final concentration of 1.0 mg/ml. The plasma solution was prepared by adding 0.38 ml of the 22(S)-hydroxycholesterol diglutarate stock solution to 1.62 ml of citrated bovine plasma, giving a final concentration of 300 μM. The citrated bovine plasma was incubated at 37° C. for 24 h. Proteins were discarded from the samples by centrifugal filtration before 50 μl volume of the filtrate was injected with an autosampler onto an analytical column (C18 reverse phase system) The mobile phase consisted of a gradient composed of water and acetonitrile (20→50% from 0 to 10 min, the mobile phase increased from 0.5 ml/min→1.0 ml/min in 10 minutes). Eluted compounds were detected at 210 nm.

With `CC(C)CCC(OC(=O)CCCC(=O)O)[C@@H](C)C1CCC2C3CC=C4CC(OC(=O)CCCC(=O)O)CCC4(C)C3CCC21C` (stereo partly drawn) [22(S)-hydroxycholesterol diglutarate, 22(S)-Hydroxycholesterol Diglutarate] the “detection of compound after incubation in plasma” value was “not possible to detect”.
